PubChem BioAssay AID1963869 (Molecular Pharmacology Branch, DTP, NCI, 2024)

Test system: KRAS patient-derived spheroids with HUVEC/MSC, viability
Experiment: Anticancer human tumor 323965-272-R-J2-PDC patient-derived pancreatic carcinoma cell line growth inhibition [KRAS2]
Conditions: for IC50: curve of first compound; for viability, T/C: stronger effect = lower value; active means viability on the fitted dose curve at most 10% of control; inactive means the rest
Method in brief: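 KRAS-mutant tumor cells were grown as spheroids with HUVEC endothelial cells and human MSCs as stroma. Targeted agents were tested alone and with KRAS pathway inhibitors. Doses started at or near clinical Cmax, or 10 microM, descending half-log.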

[1] = second compound 0.1 µM, first compound 0.0316 µM
[2] = second compound 0.1 µM, first compound 0.1 µM
[3] = second compound 0.316 µM, first compound 0.0316 µM
[4] = second compound 0.316 µM, first compound 0.1 µM
[5] = second compound 1 µM, first compound 0.0316 µM
[6] = second compound 1 µM, first compound 0.1 µM
[7] = second compound 3.16 µM, first compound 0.0316 µM
[8] = second compound 3.16 µM, first compound 0.1 µM
[9] = second compound 10 µM, first compound 0.0316 µM
[10] = second compound 10 µM, first compound 0.1 µM
[11] = second compound 0.1 µM, first compound 0.316 µM
[12] = second compound 0.1 µM, first compound 1 µM
[13] = second compound 0.1 µM, first compound 3.16 µM
[14] = second compound 0.1 µM, first compound 10 µM
[15] = second compound 0.316 µM, first compound 0.316 µM
[16] = second compound 0.316 µM, first compound 1 µM
[17] = second compound 0.316 µM, first compound 3.16 µM
[18] = second compound 0.316 µM, first compound 10 µM
[19] = second compound 1 µM, first compound 0.316 µM
[20] = second compound 1 µM, first compound 1 µM
[21] = second compound 1 µM, first compound 3.16 µM
[22] = second compound 1 µM, first compound 10 µM
[23] = second compound 3.16 µM, first compound 0.316 µM
[24] = second compound 3.16 µM, first compound 1 µM
[25] = second compound 3.16 µM, first compound 3.16 µM
[26] = second compound 3.16 µM, first compound 10 µM
[27] = second compound 10 µM, first compound 0.316 µM
[28] = second compound 10 µM, first compound 1 µM
[29] = second compound 10 µM, first compound 3.16 µM
[30] = second compound 10 µM, first compound 10 µM
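Further: spheroids exposed to agents for 7 days.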
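Wherever viability, T/C is given: 100% = DMSO vehicle control viability.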

CC(C)n1nc(-c2ccc3oc(N)nc3c2)c2c(N)ncnc21 + CNCc1ccccc1-c1csc(C(C)Nc2nc(C)nc3cc(OC)c(OC)cc23)c1
< 0.316 nM: IC50 (second compound 10 µM)
2.12 nM: IC50 (second compound 0.1 µM)
2 nM: IC50 (second compound 0.316 µM)
inactive: viability, T/C (second compound 0.1 µM, first compound 0.000316 µM) 84.4% | viability, T/C (second compound 0.1 µM, first compound 0.001 µM) 58.7% | viability, T/C (second compound 0.1 µM, first compound 0.00316 µM) 47.6% | viability, T/C (second compound 0.1 µM, first compound 0.01 µM) 30.1% | viability, T/C [1] 22.7% | viability, T/C [2] 17.9% | viability, T/C (second compound 0.316 µM, first compound 0.000316 µM) 78.2% | viability, T/C (second compound 0.316 µM, first compound 0.001 µM) 60.8% | viability, T/C (second compound 0.316 µM, first compound 0.00316 µM) 43.1% | viability, T/C (second compound 0.316 µM, first compound 0.01 µM) 28.2% | viability, T/C [3] 19.3% | viability, T/C [4] 16.8% | viability, T/C (second compound 1 µM, first compound 0.000316 µM) 80.6% | viability, T/C (second compound 1 µM, first compound 0.001 µM) 71.5% | viability, T/C (second compound 1 µM, first compound 0.00316 µM) 44.6% | viability, T/C (second compound 1 µM, first compound 0.01 µM) 29.8% | viability, T/C [5] 19.1% | viability, T/C [6] 15.6% | viability, T/C (second compound 3.16 µM, first compound 0.000316 µM) 89% | viability, T/C (second compound 3.16 µM, first compound 0.001 µM) 76% | viability, T/C (second compound 3.16 µM, first compound 0.00316 µM) 42.9% | viability, T/C (second compound 3.16 µM, first compound 0.01 µM) 16%
2.45 nM: IC50 (second compound 3.16 µM)
active: viability, T/C [7] 9.29% | viability, T/C [8] 9.2% | viability, T/C (second compound 10 µM, first compound 0.000316 µM) 0.23% | viability, T/C (second compound 10 µM, first compound 0.001 µM) 0.23% | viability, T/C (second compound 10 µM, first compound 0.00316 µM) 0.19% | viability, T/C (second compound 10 µM, first compound 0.01 µM) 0.16% | viability, T/C [9] 0.12% | viability, T/C [10] 0.35%
2.72 nM: IC50 (second compound 1 µM)

CC1(C)CCC(CN2CCN(c3ccc(C(=O)NS(=O)(=O)c4ccc(NCC5CCOCC5)c([N+](=O)[O-])c4)c(Oc4cnc5[nH]ccc5c4)c3)CC2)=C(c2ccc(Cl)cc2)C1 + CNCc1ccccc1-c1csc(C(C)Nc2nc(C)nc3cc(OC)c(OC)cc23)c1
< 31.6 nM: IC50 (second compound 10 µM)
1680 nM: IC50 (second compound 0.316 µM)
inactive: viability, T/C [1] 94.5% | viability, T/C [2] 94.2% | viability, T/C [11] 86.2% | viability, T/C [12] 87.8% | viability, T/C [13] 14.9% | viability, T/C [3] 83% | viability, T/C [4] 91.8% | viability, T/C [15] 92.5% | viability, T/C [16] 81.2% | viability, T/C [17] 12% | viability, T/C [5] 106% | viability, T/C [6] 104% | viability, T/C [19] 99.2% | viability, T/C [20] 94.8% | viability, T/C [21] 15.3% | viability, T/C [7] 104% | viability, T/C [8] 102% | viability, T/C [23] 98.7% | viability, T/C [24] 71.3%
active: viability, T/C [14] 5.18% | viability, T/C [18] 2.51% | viability, T/C [22] 1.65% | viability, T/C [25] 1.61% | viability, T/C [26] 1.05% | viability, T/C [9] 0.23% | viability, T/C [10] 0.28% | viability, T/C [27] 0.27% | viability, T/C [28] 0.19% | viability, T/C [29] 0.14% | viability, T/C [30] 0.18%
1430 nM: IC50 (second compound 3.16 µM)
1910 nM: IC50 (second compound 1 µM)
1820 nM: IC50 (second compound 0.1 µM)

COc1cc(Nc2ncc3c(n2)-c2ccc(Cl)cc2C(c2c(F)cccc2OC)=NC3)ccc1C(=O)O + CNCc1ccccc1-c1csc(C(C)Nc2nc(C)nc3cc(OC)c(OC)cc23)c1
96.4 nM: IC50 (second compound 1 µM)
92.6 nM: IC50 (second compound 0.316 µM)
< 31.6 nM: IC50 (second compound 10 µM)
> 10000 nM: IC50 (second compound 3.16 µM)
128 nM: IC50 (second compound 0.1 µM)
inactive: viability, T/C [1] 80.2% | viability, T/C [2] 52.9% | viability, T/C [11] 32% | viability, T/C [12] 39.3% | viability, T/C [13] 55.5% | viability, T/C [14] 63.5% | viability, T/C [3] 78.8% | viability, T/C [4] 50.2% | viability, T/C [15] 33.6% | viability, T/C [16] 35.6% | viability, T/C [17] 52.3% | viability, T/C [18] 55.2% | viability, T/C [5] 85.6% | viability, T/C [6] 51% | viability, T/C [19] 31.9% | viability, T/C [20] 37.9% | viability, T/C [21] 51.1% | viability, T/C [22] 60% | viability, T/C [7] 88.2% | viability, T/C [8] 36.9% | viability, T/C [23] 17.9% | viability, T/C [24] 39.5% | viability, T/C [25] 63.3% | viability, T/C [26] 64.6%
active: viability, T/C [9] 0.29% | viability, T/C [10] 0.17% | viability, T/C [27] 0.16% | viability, T/C [28] 0.2% | viability, T/C [29] 0.35% | viability, T/C [30] 0.26%

COc1cc2nccc(Oc3ccc(NC(=O)C4(C(=O)Nc5ccc(F)cc5)CC4)cc3)c2cc1OC + CNCc1ccccc1-c1csc(C(C)Nc2nc(C)nc3cc(OC)c(OC)cc23)c1
active: viability, T/C [26] 1.54% | viability, T/C [9] 0.33% | viability, T/C [10] 0.3% | viability, T/C [27] 0.27% | viability, T/C [28] 0.75% | viability, T/C [29] 0.33% | viability, T/C [30] 0.34%
> 10000 nM: IC50 (second compound 0.1 µM) | IC50 (second compound 0.316 µM) | IC50 (second compound 1 µM)
< 31.6 nM: IC50 (second compound 10 µM)
inactive: viability, T/C [1] 91.7% | viability, T/C [2] 99.3% | viability, T/C [11] 110% | viability, T/C [12] 101% | viability, T/C [13] 85.2% | viability, T/C [14] 87.2% | viability, T/C [3] 87.2% | viability, T/C [4] 88.7% | viability, T/C [15] 100% | viability, T/C [16] 93.2% | viability, T/C [17] 91.4% | viability, T/C [18] 82% | viability, T/C [5] 105% | viability, T/C [6] 99% | viability, T/C [19] 102% | viability, T/C [20] 101% | viability, T/C [21] 92.6% | viability, T/C [22] 72.7% | viability, T/C [7] 95.4% | viability, T/C [8] 91.8% | viability, T/C [23] 92.2% | viability, T/C [24] 91.6% | viability, T/C [25] 66.5%
4240 nM: IC50 (second compound 3.16 µM)
